Patent US8975286B2, “Ether benzotriazole derivatives” (Merck Sharp & Dohme Corp., priority 2009, dated 2015)

Molecular target: T1, recombinant human mGluR2 (Homo sapiens, UniProt Q14416)
T1 construct: expressed in transfected cells
Assay: FLIPR Ca2+ mobilization assay, potentiation of glutamate (EC20) response
Assay type: cell-based
Conditions: CHO dhfr- cells expressing human mGluR2 and Gα16; potentiation with EC20 glutamate (900 nM); read-out: Representative FLIPR EC50 Values
Experimental: Potencies are determined as follows. The compounds of the present invention may be tested in a fluorescence laser imaging plate reader (FLIPR) based assay. This assay is a common functional assay to monitor Ca^2+ mobilization in whole cells expressing recombinant receptor coupled with a promiscuous G-protein. CHO dhfr− cells stably expressing recombinant human mGluR2 and Gα16 loaded with Fluo-4 AM (Invitrogen, Carlsbad Calif.) are treated with varying concentrations of compounds and the Ca^2+ response is monitored on a FLIPR384 (Molecular Devices, Sunnydale Calif.) for agonist activity. The potentiation response is monitored after a subsequent addition of an EC20 concentration of glutamate (900 nM). The maximum calcium response at each concentration of compound for agonism or potentiation are plotted as dose responses curves fitted with a four parameters logistic equation giving EC50 and Hill coefficient using the iterative non linear curve fitting software program.

T1 sequence (Q14416 19-872): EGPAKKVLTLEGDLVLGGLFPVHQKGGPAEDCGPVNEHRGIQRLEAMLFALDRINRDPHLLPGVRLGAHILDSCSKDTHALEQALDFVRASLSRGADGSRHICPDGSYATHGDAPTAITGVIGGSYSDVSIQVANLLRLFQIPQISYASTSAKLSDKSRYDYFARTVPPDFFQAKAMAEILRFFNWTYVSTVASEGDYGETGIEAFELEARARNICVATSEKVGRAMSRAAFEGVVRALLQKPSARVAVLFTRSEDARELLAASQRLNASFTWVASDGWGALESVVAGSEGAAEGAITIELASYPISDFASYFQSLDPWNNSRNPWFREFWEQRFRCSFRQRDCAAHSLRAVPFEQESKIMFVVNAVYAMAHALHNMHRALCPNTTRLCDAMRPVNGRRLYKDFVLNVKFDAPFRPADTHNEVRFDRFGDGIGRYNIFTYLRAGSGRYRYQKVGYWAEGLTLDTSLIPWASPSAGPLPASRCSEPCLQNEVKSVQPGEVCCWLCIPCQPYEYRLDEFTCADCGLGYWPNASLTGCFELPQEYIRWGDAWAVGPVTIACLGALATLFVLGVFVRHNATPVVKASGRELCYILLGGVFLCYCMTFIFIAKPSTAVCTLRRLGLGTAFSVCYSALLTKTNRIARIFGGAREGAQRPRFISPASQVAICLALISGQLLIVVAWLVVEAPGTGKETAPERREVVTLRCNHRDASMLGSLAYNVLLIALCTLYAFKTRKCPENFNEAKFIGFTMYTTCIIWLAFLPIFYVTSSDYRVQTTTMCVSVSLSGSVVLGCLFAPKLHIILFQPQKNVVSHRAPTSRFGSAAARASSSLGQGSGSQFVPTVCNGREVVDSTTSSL

`CC(C)(O)c1cccnc1Oc1ccc2c(nnn2CC2CC2)c1Cl` [Example 396, 2-(2-{[4-chloro-1-(cyclopropylmethyl)-1H-benzotriazol-5-yl]oxy}pyridin-3-yl)propan-2-ol] and `OC(CF)(CF)c1cccnc1Oc1ccc2c(nnn2CC2CC2)c1Cl` [Example 398, 2-(2-{[4-chloro-1-(cyclopropylmethyl)-1H-benzotriazol-5-yl]oxy}pyridin-3-yl)-1,3-difluoropropan-2-ol] are the same in EC50: 556 nM for the first, 556 nM for the second.

First: CS(=O)(=O)N1CCN(Cc2cc(Cl)cnc2Oc2ccc3c(nnn3CC3CC3)c2Br)CC1 [Example 198, 4-bromo-5-[(5-chloro-3-{[4-(methylsulfonyl)piperazin-1-yl]methyl}pyridin-2-yl)oxy]-1-(cyclopropylmethyl)-1H-benzotriazole]
Second: CS(=O)(=O)N1CCCN(Cc2cc(Cl)cnc2Oc2ccc3c(nnn3CC3CC3)c2Br)CC1 [Example 280, 4-bromo-5-[(5-chloro-3-{[4-(methylsulfonyl)-1,4-diazepan-1-yl]methyl}pyridin-2-yl)oxy]-1-(cyclopropylmethyl)-1H-benzotriazole]
The EC50 of the first is 2.7-fold lower: 3 nM for the first, 8 nM for the second. The first is the more potent here.

Going from `CC1CN(Cc2cc(F)cnc2Oc2ccc3c(nnn3CC3CC3)c2Br)CCN1S(C)(=O)=O` (stereo in doubt) [Example 290, 4-bromo-1-(cyclopropylmethyl)-5-[(5-fluoro-3-{[(3R)-3-methyl-4-(methylsulfonyl)piperazin-1-yl]methyl}pyridin-2-yl)oxy]-1H-benzotriazole] to `CC(=O)N1CCCN(Cc2cc(F)cnc2Oc2ccc3c(nnn3CC3CC3)c2Br)CC1` [Example 253, 5-({3-[(4-acetyl-1,4-diazepan-1-yl)methyl]-5-fluoropyridin-2-yl}oxy)-4-bromo-1-(cyclopropylmethyl)-1H-benzotriazole], the EC50 rises from 2 nM to 52 nM (26-fold). The first is the more potent here.

Going from `Clc1cnc(Oc2ccc3c(nnn3CC3CC3)c2Br)c(CN2CC(n3cccn3)C2)c1` [Example 384, 4-bromo-5-[(5-chloro-3-{[3-(1H-pyrazol-1-yl)azetidin-1-yl]methyl}pyridin-2-yl)oxy]-1-(cyclopropylmethyl)-1H-benzotriazole] to `OCC1C2CN(Cc3cc(Cl)cnc3Oc3ccc4c(nnn4CC4CC4)c3Br)CC12` (centres unmarked) [Example 357, {3-[(2-{[4-bromo-1-(cyclopropylmethyl)-1H-benzotriazol-5-yl]oxy}-5-chloropyridin-3-yl)methyl]-3-azabicyclo[3.1.0]hex-6-yl}methanol], the EC50 rises from 8 nM to 13 nM (1.6-fold). The first is the more potent here.

Going from `O=C(NCc1cc(F)cnc1Oc1ccc2c(nnn2CC2CC2)c1Br)c1ccon1` [Example 284, N-[(2-{[4-bromo-1-(cyclopropylmethyl)-1H-benzotriazol-5-yl]oxy}-5-fluoropyridin-3-yl)methyl]isoxazole-3-carboxamide] to `FC(F)(F)CNCc1cccnc1Oc1ccc2c(nnn2CC2CC2)c1Br` [Example 213, N-[(2-{[4-bromo-1-(cyclopropylmethyl)-1H-benzotriazol-5-yl]oxy}pyridin-3-yl)methyl]-2,2,2-trifluoroethanamine], the EC50 falls from 64 nM to 40 nM (1.6-fold). The second is the more potent here.

First: OCC(O)c1cccnc1Oc1ccc2c(nnn2CC2CC2)c1Br (centres unmarked) [Example 52, 1-(2-{[4-bromo-1-(cyclopropylmethyl)-1H-benzotriazol-5-yl]oxy}pyridin-3-yl)ethane-1,2-diol]
Second: OC(c1cccnc1Oc1ccc2c(nnn2CC2CC2)c1Br)C1CC1 (centres unmarked) [Example 93, (2-{[4-bromo-1-(cyclopropylmethyl)-1H-benzotriazol-5-yl]oxy}pyridin-3-yl)(cyclopropyl)methanol]
The EC50 of the first is 74-fold higher: 814 nM for the first, 11 nM for the second. The second is the more potent here.

Going from `FCC1CCN(Cc2cccnc2Oc2ccc3c(nnn3CC3CC3)c2Br)C1` (centres unmarked) [Example 215, 4-bromo-1-(cyclopropylmethyl)-5-[(3-{[3-(fluoromethyl)pyrrolidin-1-yl]methyl}pyridin-2-yl)oxy]-1H-benzotriazole] to `FC1(F)CCN(Cc2cccnc2Oc2ccc3c(nnn3CC3CC3)c2Br)CC1` [Example 194, 4-Bromo-1-(cyclopropylmethyl)-5-({3-[(4,4-difluoropiperidin-1-yl)methyl]pyridin-2-yl}oxy)-1H-benzotriazole], the EC50 falls from 129 nM to 32 nM (4-fold). The second is the more potent here.

Compared with `OC1(c2cccnc2Oc2ccc3c(nnn3CC3CC3)c2Cl)CCC(C(F)(F)F)CC1` (centres unmarked) [Example 411, 1-(2-{[4-chloro-1-(cyclopropylmethyl)-1H-benzotriazol-5-yl]oxy}pyridin-3-yl)-4-(trifluoromethyl) cyclohexanol], `OC(c1cccnc1Oc1ccc2c(nnn2CC2CC2)c1C(F)(F)F)C1CC1` (centres unmarked) [Example 421, cyclopropyl(2-{[1-(cyclopropylmethyl)-4-(trifluoromethyl)-1H-benzotriazol-5-yl]oxy}pyridin-3-yl)methanol] is 13-fold lower in EC50: 257 nM for the first, 20 nM for the second.

First: Clc1cnc(Oc2ccc3c(nnn3CC3CC3)c2Br)c(CN2CCN(c3nccs3)CC2)c1 [Example 320, 4-bromo-5-[(5-chloro-3-{[4-(1,3-thiazol-2-yl)piperazin-1-yl]methyl}pyridin-2-yl)oxy]-1-(cyclopropylmethyl)-1H-benzotriazole]
Second: CS(=O)(=O)NC1CCN(Cc2cc(Cl)cnc2Oc2ccc3c(nnn3CC3CC3)c2Br)CC1 [Example 365, N-{1-[(2-{[4-bromo-1-(cyclopropylmethyl)-1H-benzotriazol-5-yl]oxy}-5-chloropyridin-3-yl)methyl]piperidin-4-yl}methanesulfonamide]
The EC50 of the first is 1.6-fold lower: 5 nM for the first, 8 nM for the second. The first is the more potent here.

First: CC(O)c1cccnc1Oc1ccc2c(nnn2CC2CC2)c1C(F)(F)F (racemic) [Example 418, (±)-1-(2-{[1-(cyclopropylmethyl)-4-(trifluoromethyl)-1H-benzotriazol-5-yl]oxy}pyridin-3-yl)ethanol]
Second: CC(C)(C)C(O)c1cccnc1Oc1ccc2c(nnn2CC2CC2)c1Br (centres unmarked) [Example 72, 1-(2-{[4-bromo-1-(cyclopropylmethyl)-1H-benzotriazol-5-yl]oxy}pyridin-3-yl)-2,2-dimethylpropan-1-ol]
The EC50 of the first is 9.8-fold higher: 49 nM for the first, 5 nM for the second. The second is the more potent here.

Compared with `COCC(OC)c1cccnc1Oc1ccc2c(nnn2CC2CC2)c1Br` (centres unmarked) [Example 55, 4-bromo-1-(cyclopropylmethyl)-5-{[3-(1,2-dimethoxyethyl)pyridin-2-yl]oxy}-1H-benzotriazole], `CC(C)(C)C(O)c1cccnc1Oc1ccc2c(nnn2CC2CC2)c1Br` (centres unmarked) [Example 91, 1-(2-{[4-bromo-1-(cyclopropylmethyl)-1H-benzotriazol-5-yl]oxy}pyridin-3-yl)-2,2-dimethylpropan-1-ol] is 16-fold lower in EC50: 95 nM for the first, 6 nM for the second. The second is the more potent here.

Compared with `Cn1cc(-c2cnc(Oc3ccc4c(nnn4CC(C)(C)C)c3Br)c(C#N)c2)cn1` [Example 169, 2-{[4-bromo-1-(2,2-dimethylpropyl)-1H-benzotriazol-5-yl]oxy}-5-(1-methyl-1H-pyrazol-4-yl)pyridine-3-carbonitrile], `Cc1cccnc1Oc1ccc2c(nnn2CC(C)(C)C)c1Br` [Example 122, 4-bromo-1-(2,2-dimethylpropyl)-5-[(3-methylpyridin-2-yl)oxy]-1H-benzotriazole] is 5.3-fold lower in EC50: 425 nM for the first, 80 nM for the second. The second is the more potent here.

Going from `CC(O)c1ncccc1Oc1ccc2c(nnn2CC(C)(C)C)c1Br` (centres unmarked) [Example 151, 1-(3-{[4-bromo-1-(2,2-dimethylpropyl)-1H-benzotriazol-5-yl]oxy}pyridin-2-yl)ethanol] to `CCC(O)c1cccnc1Oc1ccc2c(nnn2CC(C)(C)C)c1Br` (centres unmarked) [Example 184, 1-(2-{[4-bromo-1-(2,2-dimethylpropyl)-1H-benzotriazol-5-yl]oxy}pyridin-3-yl)propan-1-ol], the EC50 falls from 122 nM to 21 nM (5.8-fold).

Going from `CC(C)(C)Cn1nnc2c(Br)c(Oc3ncccc3C(F)(F)F)ccc21` [Example 111, 4-bromo-1-(2,2-dimethylpropyl)-5-{[3-(trifluoromethyl)pyridin-2-yl]oxy}-1H-benzotriazole] to `CC(C)(C)Cn1nnc2c(Br)c(Oc3ccncc3)ccc21` [compound 423, 4-bromo-1-(2,2-dimethylpropyl)-5-pyridin-4-yloxy-1H-benzotriazole], the EC50 rises from 64 nM to 141 nM (2.2-fold). The first is the more potent here.

Going from `CC1(O)CCN(Cc2cccnc2Oc2ccc3c(nnn3CC3CC3)c2Br)CC1` [Example 227, 1-[(2-{[4-bromo-1-(cyclopropylmethyl)-1H-benzotriazol-5-yl]oxy}pyridin-3-yl)methyl]-4-methylpiperidin-4-ol] to `FC1(F)CCCN(Cc2cccnc2Oc2ccc3c(nnn3CC3CC3)c2Br)C1` [Example 204, 4-bromo-1-(cyclopropylmethyl)-5-({3-[(3,3-difluoropiperidin-1-yl)methyl]pyridin-2-yl}oxy)-1H-benzotriazole], the EC50 falls from 705 nM to 39 nM (18-fold). The second is the more potent here.

`CC(C)(C)OC(=O)N1C[C@@H]2C[C@H]1CN2Cc1cc(Cl)cnc1Oc1ccc2c(nnn2CC2CC2)c1Br` [Example 297, tert-butyl(1S,4S)-5-[(2-{[4-bromo-1-(cyclopropylmethyl)-1H-benzotriazol-5-yl]oxy}-5-chloropyridin-3-yl)methyl]-2,5-diazabicyclo[2.2.1] heptane-2-carboxylate] and `CC(C)(C)Cn1nnc2c(Br)c(Oc3cccc(Br)n3)ccc21` [Example 148, 4-bromo-5-[(6-bromopyridin-2-yl)oxy]-1-(2,2-dimethylpropyl)-1H-benzotriazole] are within 1.5-fold of each other in EC50: 19 nM for the first, 23 nM for the second.
